Measurements published in ChEMBL document CHEMBL3507680, “University of Dundee, Gates Library screen for HepG2 cell viability”.

Assay: Human HepG2 cell viability assay in 384 well format
Format: toxicity, cell-based
Set-up: dose 125 nL, time 70.5 hour; cytotoxicity at 70.5 h: concentration not given beside the values
Conditions: HepG2 cells, read-out: Inhibition

Compound	cytotoxicity at 70.5 h
COCCN(C(=O)c1ccsc1)c1ccc(C#N)cc1	-3.69%
CC(Nc1ccc(Oc2cccc(C#N)c2)cc1)C(=O)NC1CC1 (configuration not stated)	-3.83%
CSc1ccc(-c2nc(CN3CCNCC3C)c(C)o2)cc1 (configuration not stated)	3%
COc1ccc(C(=O)N(c2ccc(OC)c(F)c2)C(C)C)cn1	-2.91%
CS(=O)(=O)NC1CCN(Cc2coc(-c3ccc(Cl)cc3)n2)CC1	7.7%
CC(C)C(C(=O)NCc1ccccc1-n1cccn1)N(C)C (configuration not stated)	-7.79%
N#Cc1c(N2CCCCC2)nsc1-c1cccnc1	25%
CN1CCn2c(-c3ccccc3)cnc2C12CCN(CC1CC1)CC2	-3.45%
COCCN(C)c1ccc(NCc2cscn2)nc1	24.9%
CN(C)c1ncc(-c2ccc(NC(=O)[C@@H]3CCCCN3)cc2)cn1	-0.758%
O=C(N[C@H]1CCCC[C@@H]1O)c1ccc2nc(-c3ccccc3)[nH]c2c1	9.22%
Cc1cnc(CN(C)C2CCN(CCCc3cnn(C)c3)C2)o1 (configuration not stated)	-8%
Cn1ncc2c1C(COCC1CC1)CN(Cc1nccs1)C2 (configuration not stated)	6.16%
COc1cccc2ccc(N3CCC(O)(C(=O)O)CC3)nc12	-16.9%
CCn1cc(CN(C)S(=O)(=O)c2ccccc2)cn1	-6.94%
O=C(CCn1cccn1)NCCOc1cccc(Cl)c1	-7.23%
CC1=CC[C@@H]2CN(C(=O)c3ccc(-c4nc[nH]n4)cc3)C[C@@H]2C1	11%
CCn1nc(C)c2ncnc(NCCn3cccn3)c21	-1.42%
O=C1CSC(c2ccsc2)c2c(n(C3CCOCC3)[nH]c2=O)N1 (configuration not stated)	27.6%
Cc1nc(-c2nnc[nH]2)sc1C(=O)N1CCCC1c1cccs1 (configuration not stated)	-6.5%
Cc1cc(C(=O)O)ccc1NS(=O)(=O)c1c(C)nn(C(C)C)c1C	-5.01%

Compound	cytotoxicity at 70.5 h
O=C(O)c1ccccc1-n1cnc(CN2CCc3ccccc3C2)c1	27.7%
Cc1ccc(C#N)c(N2CCC(c3nccn3Cc3cscn3)CC2)n1	-8.13%
N#Cc1ncn(CC(=O)N2CCCC2c2cccs2)n1 (configuration not stated)	22.9%
Cc1cc(C)n(CC2CCCN2CCCc2nc3ccccc3o2)n1 (configuration not stated)	-1.67%
COc1ccc(S(=O)(=O)Nc2cnc(N(C)C)nc2)cc1	29.6%
Cn1ccc(CN2CCC(NC(=O)NC3CCCCC3)CC2)cc1=O	-5.64%
O=C(O)c1cn(CC2CCCN(c3ccc4ccccc4n3)C2)nn1 (configuration not stated)	-10.4%
O=C(Cc1ccc2c(c1)CCO2)N1CCCC(n2cccn2)C1 (configuration not stated)	-12.1%
NC(=O)N1CCC2(CC1)CC(=O)N(CC1CCCO1)c1ccccc12 (configuration not stated)	5.57%
Cc1cccc(N2CCN(CCS(=O)(=O)c3ccc(Br)cc3)CC2)c1C	-9.15%
O=C(NCCCn1ccnc1)N1CCCC1c1ccsc1 (configuration not stated)	24.9%
Cn1cc(S(=O)(=O)NCC2CCN(C(=O)Oc3ccccc3)CC2)cn1	2.31%
CSC1(CNC(=O)NC(C)Cc2cccc(F)c2)CCOCC1 (configuration not stated)	0.72%
OC(CNCCn1cccn1)c1ccc(F)c(F)c1 (configuration not stated)	0.389%
CC(Cn1cccn1)NC(=O)Nc1ccc(N2CCCCC2)nc1 (configuration not stated)	-7.26%
Cn1cc(C(=O)N2CCCCC2CCc2ccc(O)cc2)cn1 (configuration not stated)	-10.3%
CCCc1nc(CN2CCCCC2Cn2cncn2)cs1 (configuration not stated)	-7.91%
COc1ccc(-c2nnc(CNCCn3cccn3)o2)cc1	-9.2%
CC(C)CCNC(=O)c1ccc(Cl)c(NS(C)(=O)=O)c1	-4.83%
CCN1CC(C(=O)NCCOc2ccc3c(c2)OCO3)CC1=O (configuration not stated)	-1.5%
CCN(CC)CCC(=O)N1CCc2c(nc(N(C)C)nc2N(C)C)C1	29.3%

Compound	cytotoxicity at 70.5 h
OC(COCc1ccc(Cl)cc1)CN1CC(n2cccn2)C1 (configuration not stated)	-2.28%
O=C(NCc1ccc(-n2cncn2)nc1)c1cc[nH]n1	-4.63%
O=C(Nc1cccc(N2CCOCC2)c1)N[C@H](CO)c1ccccc1	-1.11%
CCN(Cc1cccc2c1OCO2)C(=O)C(C)c1cccnc1 (configuration not stated)	1.7%
CCc1ncncc1C(=O)NC1CCc2nc(C)cn2C1 (configuration not stated)	-1.22%
CC(C)(C)c1noc(-c2nc3c([nH]2)CCCNC3=O)n1	-4.9%
Cc1cc(CNC(=O)NC(C)c2ccccc2)no1 (configuration not stated)	0.144%
COc1cc2c(cc1CNCc1cccnc1-n1cccn1)OC(C)C2 (configuration not stated)	16.8%
CC(C)c1nc(CN(C)C(=O)c2cn3ccsc3n2)cs1	2.2%
CCn1nc(C)c2nnn(CC(=O)Nc3c(C)cccc3C)c(=O)c21	27.9%
O=C(NC1CC1)N1CC[C@H]2[C@H]1CCN2c1nncs1	6.09%
Cc1cc(=O)[nH]c(-n2nc(C)c(CCC(=O)NCc3ccco3)c2C)n1	31.1%
c1cc(CCn2ccc(NC3CCSCC3)n2)ccn1	-3.19%
Cc1cccc(-c2nc(N)nc3c2CN(C(=O)c2cc(C)n[nH]2)C3C)c1 (configuration not stated)	-13.9%
Cc1ccc(C(=O)N2CCCN(Cc3cccs3)CC2)c(=O)[nH]1	-0.458%
O=C(CCn1ncc2ccccc21)N1CCCC(Cc2cccnc2)C1 (configuration not stated)	-5.11%
Cc1cc(C2CCCN(CCCS(N)(=O)=O)C2)n[nH]1 (configuration not stated)	-5.94%
O=C1NCC(C(=O)Nc2ccc(=O)n(Cc3ccccc3Cl)c2)N1 (configuration not stated)	-21.3%
CC(C)c1nc(CCn2cncn2)n(-c2ccc3c(c2)OCCO3)n1	-12.6%
Cc1csc(C2CCCCN2C(=O)COCc2nc(C)no2)n1 (configuration not stated)	-4.26%
Cc1cc(CN(C)C(=O)Nc2ccccc2C)no1	-4.53%

Compound	cytotoxicity at 70.5 h
CCNC(=O)N1CC(c2nc(Cc3ccccc3)no2)C1	-5.59%
O=c1[nH]nc2c(S(=O)(=O)N3CCCCCC3)cccn12	-7.77%
Fc1ccc(-c2n[nH]cc2-c2ccnc(NCCN3CCCC3)n2)cc1	24%
Cc1ccc(CN2CCn3c(CNS(C)(=O)=O)nnc3C2)s1	22.6%
CCN(C(=O)CN1CCCN(c2nc(C)ns2)CC1)C1CC1	-3.69%
COc1ccc(CC(=O)NC2CCN(CC(F)F)CC2)cc1OC	0.793%
CCN(C)C(=O)c1ccc(N2CCC(Oc3cccc(F)c3)CC2)nc1	-4.75%
CCc1nn(C)c(CC)c1CNC(=O)Nc1cccc2c1CCN2C	-0.865%
CCCn1nc2c(cc1=O)CN(Cc1nc(-c3ccoc3)no1)CC2	-2.82%
O=C(c1ccc(-n2cnnc2)cc1)N1CCC(Nc2cccnn2)CC1	-15.6%
COc1c(Br)cccc1CCNC(=O)c1ccon1	-10.8%
CN1CC(c2ccccc2)CC2(CCN(C(=O)c3cccnn3)CC2)C1 (configuration not stated)	-4.99%
Cc1ccc(-c2nc(CN3CCc4cnc(C)nc4C3)no2)cc1	0.992%
COc1ccc(CN2C[C@@H]3CC[C@H](C2)N(S(=O)(=O)C2CC2)C3)cc1	-5.41%
CCC(NC(=O)NC1CCN(S(C)(=O)=O)CC1)c1cccs1 (configuration not stated)	-11.5%
O=C(NC1CC1)[C@@H]1CCO[C@@H]2CCN(CCc3ccccc3)C[C@@H]21	-6.53%
CC(C)[C@H]1COC(=O)N1Cc1noc(-c2ccccc2)n1	-7.59%
CCn1cnnc1CNS(=O)(=O)N1CCCC1c1ccco1 (configuration not stated)	-9.43%
CCN1CCN(CCCNc2ncccn2)CC1	9.52%
